Test results reported in US20150083906A1, “BIOMARKERS FOR MONITORING INTERVENTION THERAPIES FOR DIABETES” (MERCK SHARP & DOHME CORP., priority 2012, published 2015).
Entries after “also recorded” stand apart in the source; their conditions may differ.

Legend:
db/db mice [1] = assay: Study 1: plasma N-glycan profile (GLYCANMAP, MALDI-TOF MS) and HbA1c in rosiglitazone-treated db/db mice; assay type: in vivo; details: 10 mpk oral once daily, vs vehicle
Description: An initial study (Study 1) was an analysis of 160 plasma samples collected from rosiglitazone-treated mice following oral administration of 10 mpk once daily for up to 39 days. Rosigilitazone is an athiazolidinedione class of antidiabetic drug marketed by Glaxo under the trade name AVANDIA. […] These changes, on an individual N-glycan basis, reached high statistical significance (P<0.001) as early as seven days, a full two weeks prior to changes in HbA1c (day seven vs. day 21, respectively). […]
The objective of Study 1 was to evaluate N-linked glycosylation changes in plasma proteins that precede and predict the decrease in glycated hemoglobin (HbA1c) associated with successful resolution of diabetes. […] A baseline (Day 0) sample was not analyzed in the initial rosiglitazone study, but was included in the subsequent studies described in Examples 2 and 3.
GLYCANMAP Assay (a registered trademark of Ezose Sciences, Pine Brook, N.J.): A 10 μL aliquot of each plasma sample was spiked with internal standard (700 pmol) to aid in quantitation. The spiked aliquots were analyzed for N-linked glycans using GLYCANMAP methodology, which is based on the methods previously reported by Nishimura, Furukawa and Miura (Nishimura et al., Angew Chem. Int. Ed. Engl., 44: 91-96 (2004); Furukawa et al., Anal. Chem., 80: 1094-1101 (2008); Miura et al., Chem.-A Eur. J, 13: 4797-4804 (2007)). […]

db/db mice [2] = assay: Study 3: plasma N-glycan profile in insulin detemir-treated db/db mice; assay type: in vivo; details: for Direction of Change, High Mannose glycan 520000 (Man5GlcNAc2) / Direction of Change, High Mannose glycan 620000 (Man6GlcNAc2) / Direction of Change, High Mannose glycan 720000 (Man7GlcNAc2) / Direction of Change, High Mannose glycan 820000 (Man8GlcNAc2) / Direction of Change, Hybrid glycan 430010 / Direction of Change, Hybrid glycan 530010 / Direction of Change, Hybrid glycan 630010: subcutaneous, two doses of 10 U/kg per day, days 7, 14, 21, vs vehicle
Procedure: In Study 3, changes in the N-linked glycosylation profile of total serum proteins obtained from diabetic mice were further characterized using a different drug-treatment to determine the drug specificity of the rosiglitazone-induced changes. In an animal study, insulin detemir was administered subcutaneously in two doses of 10 U/kg per day. Samples were collected from insulin detemir and vehicle-treated db/db mice at four time points (0, 7, 14, and 21 days). (Insulin detemir is a long-acting insulin marketed by Novo Nordisk under the trade name LEVEMIR.). […] The high mannose N-glycans that were decreased in the insulin-treated db/db mice were Man8GlcNAc2 (820000), Man7GlcNAc2 (720000), Man6GlcNAc2 (620000), and Man5GlcNAc2 (520000). The hybrid N-glycans that were decreased in the insulin-treated db/db mice were SiaGalGlcNAcMan3GlcNAc2 (430010), SiaGalGlcNAcMan4GlcNAc2 (530010), and SiaGalGlcNAcMan5GlcNAc2 (630010), wherein Sia is Neu5Ac or Neu5Gc.
The objective of this study was to evaluate the performance of candidate biomarkers discovered using rosiglitazone in mice treated with a diabetes drug with a different mechanism of action. The 16 candidate markers that were identified in Example 1 were evaluated in db/db mice treated with insulin detemir and vehicle.
In this Example, plasma samples were analyzed from ten db/db mice at baseline (0 days), and 20 db/db mice (ten vehicle and ten insulin detemir) at 7, 14, and 21 days. Sample preparation and analysis followed the protocol described in Example 1.
Data Analysis: For this study, the analysis was extended to evaluate changes in all detected N-glycans in order to reveal any novel N-glycan changes that might be specific to insulin detemir. The extended analysis was not performed in Study 2, which included only baseline and Day 7 time points since N-glycan changes at Day 7 could not be evaluated to determine if they are sustained over time. Drug-treated and vehicle-treated db/db mice were compared across each time point using the Student's t-test. To evaluate time-dependent changes, each time point within a treatment group was compared to its corresponding Day 0 group. N-glycans which yielded p-values <0.05 in this analysis were considered significant.
The concentrations of individual N-glycans in insulin detemir- and vehicle-treated db/db mice were compared at each time point using the Student's t-test. […] Time-dependence was also evaluated for each of the candidate markers by comparing each time point to baseline.

[3] = serum samples, vs non-treated controls

Row | Compound | Time at which highly significant (p<0.001) change in HbA1c was achieved (db/db mice [1]) | Change in O-acetylated N-glycans (db/db mice [2]; [3]) | Change in fucosylated N-glycans (db/db mice [2]; [3]) | Change in tetraantennary N-glycans (db/db mice [2]; [3]) | Direction of Change, High Mannose glycan 520000 (Man5GlcNAc2) (db/db mice [2]) | Direction of Change, High Mannose glycan 620000 (Man6GlcNAc2) (db/db mice [2]) | Direction of Change, High Mannose glycan 720000 (Man7GlcNAc2) (db/db mice [2]) | Direction of Change, High Mannose glycan 820000 (Man8GlcNAc2) (db/db mice [2]) | Direction of Change, Hybrid glycan 430010 (db/db mice [2]) | Direction of Change, Hybrid glycan 530010 (db/db mice [2]) | Direction of Change, Hybrid glycan 630010 (db/db mice [2]) | Direction of Change, High Mannose glycan 520000 (Man5GlcNAc2) (db/db mice [2]; listed as Insulin Detemir) | Direction of Change, High Mannose glycan 620000 (Man6GlcNAc2) (db/db mice [2]; listed as Insulin Detemir) | Direction of Change, High Mannose glycan 720000 (Man7GlcNAc2) (db/db mice [2]; listed as Insulin Detemir) | Direction of Change, High Mannose glycan 820000 (Man8GlcNAc2) (db/db mice [2]; listed as Insulin Detemir) | Direction of Change, Hybrid glycan 430010 (db/db mice [2]; listed as Insulin Detemir) | Direction of Change, Hybrid glycan 530010 (db/db mice [2]; listed as Insulin Detemir) | Direction of Change, Hybrid glycan 630010 (db/db mice [2]; listed as Insulin Detemir)
1 | CN(CCOc1ccc(CC2SC(=O)NC2=O)cc1)c1ccccn1 (stereo not drawn) [rosiglitazone] | 21 days |  |  |  |  |  |  |  |  |  |  |  |  |  |  |  |  | 
2 | insulin detemir |  | No change | No change | No change | decreased; also recorded: lower | decreased; also recorded: lower | decreased; also recorded: lower | decreased; also recorded: lower | decreases; also recorded: lower | decreases; also recorded: lower | decreases; also recorded: lower | Decreased | Decreased | Decreased | Decreased | Decreased | Decreased | Decreased
